Measurements published in patent US20010056085A1, “Methods of using vesicant drug formulations” (priority 1996, published 2001).
Where two headings read alike, the source gives them in different places.

Experiment: Half-life of ADR destruction by UVA light in the presence of test compounds (decrease in absorbance at 480 nm)
Format: physicochemical
[1] = UVA light, 100 μM test compound with 0.5 μM riboflavin
[2] = UVA light, 100 μM test compound alone

Nc1cccc(OCc2ccccc2)c1 [3-Benzyloxyaniline]
Half-Life of ADR Destruction, 100 μM Test Compound: 43.0 min
Half-Life of ADR Destruction, 100 μM Test Compound and 0.5 μM Riboflavin: 17.7 min

Nc1cc(N)cc(CO)c1 [3,5-Diamino Benzyl Alcohol]
Half-Life of ADR Destruction, 100 μM Test Compound and 0.5 μM Riboflavin [1]: 75.3 min

CCC(=O)c1ccc2cc(OC)ccc2c1 [6-Methoxy-propionaphthone]
Half-Life of ADR Destruction, 100 μM Test Compound: 30.1 min
Half-Life of ADR Destruction, 100 μM Test Compound and 0.5 μM Riboflavin: 27.4 min

COc1ccc2cc(C(C)=O)ccc2c1 [6-Methoxy-2-acetonaphthone]
Half-Life of ADR Destruction, 100 μM Test Compound [2]: 15.8 min

Cc1cc2ccccc2[nH]1 [2-Methyl Indole]
Half-Life of ADR Destruction, 100 μM Test Compound and 0.5 μM Riboflavin [1]: 7.00 min

C=C1C[C@]23C[C@@]1(O)CC[C@H]2[C@@]12C=C[C@H](O)[C@@](C)(C(=O)O1)[C@H]2[C@@H]3C(=O)O [Gibberellic acid]
Half-Life of ADR Destruction, 100 μM Test Compound [2]: 43.0 min

NCC(O)c1ccc(O)cc1 (stereo not drawn) [4-Hydroxy-β-hydroxy Phenethylamine]
Half-Life of ADR Destruction, 100 μM Test Compound and 0.5 μM Riboflavin [1]: 50.2 min

O=C(c1ccccc1)c1cccnc1C(=O)O [3-Benzoylpyridine-2-carboxylic acid]
Half-Life of ADR Destruction, 100 μM Test Compound [2]: 43.0 min
Half-Life of ADR Destruction, 100 μM Test Compound and 0.5 μM Riboflavin [1]: 43.0 min

O=C(O)CCc1ccc(O)cc1 [3-(4-Hydroxyphenyl) Propionic Acid]
Half-Life of ADR Destruction, 100 μM Test Compound and 0.5 μM Riboflavin [1]: 75.3 min

O=C(O)CSc1ccc2ccccc2c1 [2-(2-naphthylthio) Acetic acid]
Half-Life of ADR Destruction, 100 μM Test Compound [2]: 9.41 min
Half-Life of ADR Destruction, 100 μM Test Compound and 0.5 μM Riboflavin [1]: 8.14 min

O=Cc1c[nH]c2ccccc12 [Indole-3-carboxaldehyde]
Half-Life of ADR Destruction, 100 μM Test Compound and 0.5 μM Riboflavin [1]: 30.1 min

CC(=O)c1ccc2c(c1)OCCO2 [1,4-Benzodioxane-6-yl methyl ketone]
Half-Life of ADR Destruction, 100 μM Test Compound [2]: 43.0 min
Half-Life of ADR Destruction, 100 μM Test Compound and 0.5 μM Riboflavin [1]: 33.4 min

c1cc[nH]c1 [Pyrrole]
Half-Life of ADR Destruction, 100 μM Test Compound and 0.5 μM Riboflavin: 11.6 min

O=C(O)C(C(=O)O)c1ccsc1 [Thiophene-3-malonic acid]
Half-Life of ADR Destruction, 100 μM Test Compound and 0.5 μM Riboflavin [1]: 43.0 min

O=S(=O)(O)c1cc(O)ccc1O [2,5-Dihydroxy Benzenesulfonic acid]
Half-Life of ADR Destruction, 100 μM Test Compound and 0.5 μM Riboflavin [1]: 25.1 min

Cc1c[nH]c(C)c1 [2,4-Dimethyl Pyrrole]
Half-Life of ADR Destruction, 100 μM Test Compound and 0.5 μM Riboflavin [1]: 20.1 min

Nc1cccc(Cc2ccccc2)c1 [3-Benzylaniline]
Half-Life of ADR Destruction, 100 μM Test Compound and 0.5 μM Riboflavin [1]: 6.54 min

CC(=O)c1ccc2ccccc2c1 [2-Acetonaphthone]
Half-Life of ADR Destruction, 100 μM Test Compound [2]: 8.36 min
Half-Life of ADR Destruction, 100 μM Test Compound and 0.5 μM Riboflavin [1]: 7.92 min

Cc1cccc2[nH]ccc12 [4-Methyl Indole]
Half-Life of ADR Destruction, 100 μM Test Compound and 0.5 μM Riboflavin [1]: 18.7 ± 4.0 min

O=C(O)c1ccc([N+](=O)[O-])cc1 [4-Nitro Benzoic Acid]
Half-Life of ADR Destruction, 100 μM Test Compound and 0.5 μM Riboflavin [1]: 50.2 min

Cn1cccc1 [1-Methyl Pyrrole]
Half-Life of ADR Destruction, 100 μM Test Compound and 0.5 μM Riboflavin [1]: 27.4 min

COc1cc(C=CC=O)ccc1O [3-Methoxy-4-Hydroxy Cinnamaldehyde]
Half-Life of ADR Destruction, 100 μM Test Compound and 0.5 μM Riboflavin [1]: 50.2 min

CC(=O)c1ccc2[nH]c3ccccc3c2c1 [3-Acetylcarbazole]
Half-Life of ADR Destruction, 100 μM Test Compound (UVA light, test compound alone, +4% DMSO): 30.1 min
Half-Life of ADR Destruction, 100 μM Test Compound and 0.5 μM Riboflavin (UVA light, with 0.5 μM riboflavin, +4% DMSO): 23.2 min

O=C(O)c1ccc(-c2ccccc2)cc1 [4-Phenyl Benzoic Acid]
Half-Life of ADR Destruction, 100 μM Test Compound [2]: 43.0 min

OCCCCc1ccccc1 [4-Phenyl-1-Butanol]
Half-Life of ADR Destruction, 100 μM Test Compound [2]: 43.0 min
Half-Life of ADR Destruction, 100 μM Test Compound and 0.5 μM Riboflavin [1]: 43.0 min

CC(=O)c1ccccc1 [Acetophenone]
Half-Life of ADR Destruction, 100 μM Test Compound [2]: 43.0 min
Half-Life of ADR Destruction, 100 μM Test Compound and 0.5 μM Riboflavin [1]: 43.0 min

O=C(O)Cc1ccc(-c2ccccc2)cc1 [4-Phenyl Phenylacetic Acid]
Half-Life of ADR Destruction, 100 μM Test Compound [2]: 43.0 min
Half-Life of ADR Destruction, 100 μM Test Compound and 0.5 μM Riboflavin [1]: 27.4 min

CCCc1ccc(N)cc1 [4-Propyl Aniline]
Half-Life of ADR Destruction, 100 μM Test Compound and 0.5 μM Riboflavin [1]: 7.34 min

COc1ccc(C=O)c2ccccc12 [4-Methoxy-1-naphthaldehyde]
Half-Life of ADR Destruction, 100 μM Test Compound [2]: 1.15 min
Half-Life of ADR Destruction, 100 μM Test Compound and 0.5 μM Riboflavin [1]: 1.19 min

c1ccc2c3c([nH]c2c1)CCCCCC3 [2,3-Cyclooctenoindole]
Half-Life of ADR Destruction, 100 μM Test Compound and 0.5 μM Riboflavin [1]: 15.8 min

OCCOc1ccc2ccccc2c1 [2-(2-naphthyloxy) Ethanol]
Half-Life of ADR Destruction, 100 μM Test Compound [2]: 30.1 min
Half-Life of ADR Destruction, 100 μM Test Compound and 0.5 μM Riboflavin [1]: 2.95 min

COc1ccccc1CN [2-Methoxy Benzylamine]
Half-Life of ADR Destruction, 100 μM Test Compound and 0.5 μM Riboflavin [1]: 43.0 min

COc1ccccc1C=CC=O [2-Methoxy Cinnamaldehyde]
Half-Life of ADR Destruction, 100 μM Test Compound and 0.5 μM Riboflavin [1]: 50.2 min

Nc1ccc(CO)cc1 [4-Amino Benzyl Alcohol]
Half-Life of ADR Destruction, 100 μM Test Compound and 0.5 μM Riboflavin [1]: 27.4 min

COc1cc2ccc(=O)oc2cc1O [7-Hydroxy-6-methoxycoumarin]
Half-Life of ADR Destruction, 100 μM Test Compound [2]: 33.5 min
Half-Life of ADR Destruction, 100 μM Test Compound and 0.5 μM Riboflavin [1]: 33.5 min

CC(=O)Oc1c[nH]c2ccccc12 [3-Acetoxyindole]
Half-Life of ADR Destruction, 100 μM Test Compound [2]: 25.1 min
Half-Life of ADR Destruction, 100 μM Test Compound and 0.5 μM Riboflavin [1]: 5.90 min

O=C(c1ccccc1)c1cccs1 [2-Benzoylthiophene]
Half-Life of ADR Destruction, 100 μM Test Compound [2]: 9.41 min
Half-Life of ADR Destruction, 100 μM Test Compound and 0.5 μM Riboflavin [1]: 8.85 min

Cc1cc(C(=O)O)ccc1N [4-Amino-3-Methyl Benzoic Acid]
Half-Life of ADR Destruction, 100 μM Test Compound and 0.5 μM Riboflavin [1]: 15.8 min

COc1ccc(CCCO)cc1 [3-(4-Methoxyphenyl)-1-Propanol]
Half-Life of ADR Destruction, 100 μM Test Compound [2]: 43.0 min
Half-Life of ADR Destruction, 100 μM Test Compound and 0.5 μM Riboflavin [1]: 1.68 min

N[C@@H](Cc1cccc(O)c1)C(=O)O [3-Hydroxy Phenylalanine]
Half-Life of ADR Destruction, 100 μM Test Compound and 0.5 μM Riboflavin [1]: 34.2 ± 5.9 min

O=c1nc2[nH]c3ccccc3nc-2c(=O)[nH]1 [Alloxazine]
Half-Life of ADR Destruction, 100 μM Test Compound [2]: 2.21 min
Half-Life of ADR Destruction, 100 μM Test Compound and 0.5 μM Riboflavin [1]: 1.89 min

CC(=O)c1ccccc1O [2′-Hydroxyacetophenone]
Half-Life of ADR Destruction, 100 μM Test Compound [2]: 50.2 min
Half-Life of ADR Destruction, 100 μM Test Compound and 0.5 μM Riboflavin [1]: 43.0 min

NS(=O)(=O)c1ccccc1 [Benzenesulfonamide]
Half-Life of ADR Destruction, 100 μM Test Compound and 0.5 μM Riboflavin: 50.2 min

Nc1ccc(CC(=O)O)cc1 [4-Amino Phenylacetic acid]
Half-Life of ADR Destruction, 100 μM Test Compound [2]: 50.2 min
Half-Life of ADR Destruction, 100 μM Test Compound and 0.5 μM Riboflavin [1]: 4.63 min

Nc1ccc(C[C@H](N)C(=O)O)cc1 [4-Amino Phenylalanine]
Half-Life of ADR Destruction, 100 μM Test Compound [2]: 55.2 ± 7.1 min
Half-Life of ADR Destruction, 100 μM Test Compound and 0.5 μM Riboflavin [1]: 7.65 ± 5.46 min

O=C(O)C(=O)Cc1c[nH]c2ccccc12 [Indole-3-pyruvic acid]
Half-Life of ADR Destruction, 100 μM Test Compound and 0.5 μM Riboflavin [1]: 6.74 min

O=c1cc[nH]c(=O)[nH]1 [Uracil]
Half-Life of ADR Destruction, 100 μM Test Compound and 0.5 μM Riboflavin [1]: 50.2 min

Nc1cc(C[C@H](N)C(=O)O)ccc1O [3-Amino-4-Hydroxy Phenylalanine]
Half-Life of ADR Destruction, 100 μM Test Compound and 0.5 μM Riboflavin [1]: 100.3 min

CCc1cccc2c3c([nH]c12)C(CC)(CC(=O)O)OCC3 (stereo not drawn) [Etodolac, reference compound]
Half-Life of ADR Destruction, 100 μM Test Compound [2]: 33.5 min
Half-Life of ADR Destruction, 100 μM Test Compound and 0.5 μM Riboflavin [1]: 6.41 min

Nc1ccc(OC(F)(F)F)cc1 [4-(Trifluoromethyoxy) Aniline]
Half-Life of ADR Destruction, 100 μM Test Compound and 0.5 μM Riboflavin: 43.0 min

Nc1ncnc2nc[nH]c12 [Adenine]
Half-Life of ADR Destruction, 100 μM Test Compound [2]: 50.2 min
Half-Life of ADR Destruction, 100 μM Test Compound and 0.5 μM Riboflavin [1]: 27.4 min

CC(=O)c1ccc(O)cc1 [4′-Hydroxyacetophenone]
Half-Life of ADR Destruction, 100 μM Test Compound [2]: 50.2 min
Half-Life of ADR Destruction, 100 μM Test Compound and 0.5 μM Riboflavin [1]: 50.2 min

C[S+](C)[O-] [Dimethylsulfoxide]
Half-Life of ADR Destruction, Test Compound (UVA light, dimethylsulfoxide 4% = 0.56 M alone): 33.5 min
Half-Life of ADR Destruction, Test Compound and 0.5 μM Riboflavin (UVA light, dimethylsulfoxide 4% = 0.56 M with 0.5 μM riboflavin): 27.4 min
Half-Life of ADR Destruction, Test Compound and 0.5 μM Riboflavin (UVA light, dimethylsulfoxide 40% - 5.6 M with 0.5 μM riboflavin): 10.4 min

Nc1ccc(F)cc1F [2,4-Difluoro Aniline]
Half-Life of ADR Destruction, 100 μM Test Compound and 0.5 μM Riboflavin [1]: 7.92 min

CC(C)(C)c1cc(C(C)(C)C)c(N)c(C(C)(C)C)c1 [2,4,6-Tri-tert-butyl Aniline]
Half-Life of ADR Destruction, 100 μM Test Compound and 0.5 μM Riboflavin [1]: 43.0 min

Nc1ccc2cc(S(=O)(=O)O)cc(O)c2c1 [6-Amino-4-hydroxy-2-naphthalenesulfonic acid]
Half-Life of ADR Destruction, 100 μM Test Compound and 0.5 μM Riboflavin [1]: 50.2 min
